# From patent publication US11382328B2, “Rapid drug discovery methods for pathogen inactivation” (priority 2019, dated 2022)
# Read-outs that look alike come from different tables or passages of the source.
# Tested on: E. coli strain W3110
# Experiment: Synergy assays: Biolog chemical sensitivity panels with Group IB metal, coefficient of drug interaction (CDI) from relative growth
# Assay type: cell-based
# Settings: for CDI (coefficient of drug interaction), gold + biocide: Gold (μM); for CDI (coefficient of drug interaction), copper mixed with biocide: Copper (mM) section
# [1] = Copper (mM), 1st of 3 copper concentrations (head line not shown), biocide concentration 1 of 4, E. coli
# [2] = Copper (mM), 1st of 3 copper concentrations (head line not shown), biocide concentration 2 of 4, E. coli
# [3] = Copper (mM), 1st of 3 copper concentrations (head line not shown), biocide concentration 3 of 4, E. coli
# [4] = Copper (mM), 1st of 3 copper concentrations (head line not shown), biocide concentration 4 of 4, E. coli
# [5] = Copper (mM), 2nd of 3 copper concentrations (head line not shown), biocide concentration 1 of 4, E. coli
# [6] = Copper (mM), 2nd of 3 copper concentrations (head line not shown), biocide concentration 2 of 4, E. coli
# [7] = Copper (mM), 2nd of 3 copper concentrations (head line not shown), biocide concentration 3 of 4, E. coli
# [8] = Copper (mM), 2nd of 3 copper concentrations (head line not shown), biocide concentration 4 of 4, E. coli
# [9] = Copper (mM), 3rd of 3 copper concentrations (head line not shown), biocide concentration 1 of 4, E. coli
# [10] = Copper (mM), 3rd of 3 copper concentrations (head line not shown), biocide concentration 2 of 4, E. coli
# [11] = Copper (mM), 3rd of 3 copper concentrations (head line not shown), biocide concentration 3 of 4, E. coli
# [12] = Copper (mM), 3rd of 3 copper concentrations (head line not shown), biocide concentration 4 of 4, E. coli
# [13] = first of 3 gold concentrations, biocide concentration 1 of 4
# [14] = first of 3 gold concentrations, biocide concentration 2 of 4
# [15] = first of 3 gold concentrations, biocide concentration 3 of 4
# [16] = first of 3 gold concentrations, biocide concentration 4 of 4
# [17] = second of 3 gold concentrations, biocide concentration 3 of 4
# [18] = third of 3 gold concentrations, biocide concentration 1 of 4
# [19] = third of 3 gold concentrations, biocide concentration 2 of 4
# [20] = third of 3 gold concentrations, biocide concentration 3 of 4
# [21] = third of 3 gold concentrations, biocide concentration 4 of 4
# [22] = Silver 0.5 μM, biocide concentration 1 of 4
# [23] = Silver 0.5 μM, biocide concentration 2 of 4
# [24] = Silver 0.5 μM, biocide concentration 3 of 4
# [25] = Silver 0.5 μM, biocide concentration 4 of 4
# [26] = Silver 1.0 μM, biocide concentration 1 of 4
# [27] = Silver 1.0 μM, biocide concentration 2 of 4
# [28] = Silver 1.0 μM, biocide concentration 3 of 4
# [29] = Silver 1.0 μM, biocide concentration 4 of 4
# [30] = Silver 5.0 μM, biocide concentration 1 of 4
# [31] = Silver 5.0 μM, biocide concentration 2 of 4
# [32] = Silver 5.0 μM, biocide concentration 3 of 4
# [33] = Silver 5.0 μM, biocide concentration 4 of 4
# [34] = […], biocide concentration 4 of 4, E. coli
# [35] = 1st of 3 copper concentrations (value not shown), 4th of four biocide concentrations
# [36] = 3rd of 3 copper concentrations (value not shown), 4th of four biocide concentrations
# [37] = Gold section of Table 5, first of three gold concentrations (μM, value not given), biocide concentration 1 of 4
# [38] = Gold section of Table 5, first of three gold concentrations (μM, value not given), biocide concentration 2 of 4
# [39] = Gold section of Table 5, first of three gold concentrations (μM, value not given), biocide concentration 3 of 4
# [40] = Gold section of Table 5, first of three gold concentrations (μM, value not given), biocide concentration 4 of 4
# [41] = Gold section of Table 5, second of three gold concentrations (μM, value not given), biocide concentration 2 of 4
# [42] = Gold section of Table 5, second of three gold concentrations (μM, value not given), biocide concentration 3 of 4
# [43] = Gold section of Table 5, second of three gold concentrations (μM, value not given), biocide concentration 4 of 4
# [44] = Gold section of Table 5, third of three gold concentrations (μM, value not given), biocide concentration 1 of 4
# [45] = Gold section of Table 5, third of three gold concentrations (μM, value not given), biocide concentration 2 of 4
# [46] = Gold section of Table 5, third of three gold concentrations (μM, value not given), biocide concentration 3 of 4
# [47] = Gold section of Table 5, third of three gold concentrations (μM, value not given), biocide concentration 4 of 4
compound,measurement,setting,value
NCC(=O)NO [glycine hydroxamate],CDI (coefficient of drug interaction),[1],1.36
same,CDI (coefficient of drug interaction),[2],Tox
same,CDI (coefficient of drug interaction),[3],Tox
same,CDI (coefficient of drug interaction),[4],Tox
same,CDI (coefficient of drug interaction),[5],1.06
same,CDI (coefficient of drug interaction),[6],0.47
same,CDI (coefficient of drug interaction),[7],Tox
same,CDI (coefficient of drug interaction),[8],Tox
same,CDI (coefficient of drug interaction),[9],1.73
same,CDI (coefficient of drug interaction),[10],Tox
same,CDI (coefficient of drug interaction),[11],Tox
same,CDI (coefficient of drug interaction),[12],Tox
same,"CDI (coefficient of drug interaction), gold + biocide",[13],1.08
same,"CDI (coefficient of drug interaction), gold + biocide",[14],0.95
same,"CDI (coefficient of drug interaction), gold + biocide",[15],1.13
same,"CDI (coefficient of drug interaction), gold + biocide",[16],1.01
same,"CDI (coefficient of drug interaction), gold + biocide","second of 3 gold concentrations, biocide concentration 1 of 4",1.07
same,"CDI (coefficient of drug interaction), gold + biocide","second of 3 gold concentrations, biocide concentration 2 of 4",1.11
same,"CDI (coefficient of drug interaction), gold + biocide",[17],1.19
same,"CDI (coefficient of drug interaction), gold + biocide",[18],1.00
same,"CDI (coefficient of drug interaction), gold + biocide",[19],1.07
same,"CDI (coefficient of drug interaction), gold + biocide",[20],1.39
same,"CDI (coefficient of drug interaction), gold + biocide",[21],1.22
same,CDI,[22],0.74
same,CDI,[23],0.72
same,CDI,[24],0.79
same,CDI,[25],0.76
same,CDI,[26],0.95
same,CDI,[27],0.99
same,CDI,[28],0.95
same,CDI,[29],1.07
same,CDI,[30],1.00
same,CDI,[31],0.95
same,CDI,[32],1.09
same,CDI,[33],0.88
NC(=O)NN=Cc1ccc([N+](=O)[O-])o1 [5-Nitro-2-furaldehyde semicarbazone],CDI (coefficient of drug interaction),"[…], biocide concentration 3 of 4, E. coli",Tox
same,CDI (coefficient of drug interaction),[34],Tox
O=c1cc(O)c2ccccc2o1 [4-Hydroxy-coumarin],"CDI (coefficient of drug interaction), copper mixed with biocide",[35],Tox
same,"CDI (coefficient of drug interaction), copper mixed with biocide",[36],Tox
same,CDI (coefficient of drug interaction),"Gold 5 μM, biocide concentration 4 of 4, E. coli",Tox
same,CDI (coefficient of drug interaction),"Gold 25 μM, biocide concentration 4 of 4, E. coli",Tox
same,"CDI (coefficient of drug interaction), silver + biocide","Silver 0.5 μM, 4th of four biocide concentrations, E. coli",Tox
same,"CDI (coefficient of drug interaction), silver + biocide","Silver 1.0 μM, 4th of four biocide concentrations, E. coli",Tox
same,"CDI (coefficient of drug interaction), silver + biocide","Silver 5.0 μM, 4th of four biocide concentrations, E. coli",Tox
same,CDI (coefficient of drug interaction),[34],Tox
penimepicycline,CDI (coefficient of drug interaction),[1],0.91
same,CDI (coefficient of drug interaction),[2],1.07
same,CDI (coefficient of drug interaction),[3],Tox
same,CDI (coefficient of drug interaction),[4],Tox
same,CDI (coefficient of drug interaction),[5],0.70
same,CDI (coefficient of drug interaction),[6],0.87
same,CDI (coefficient of drug interaction),[7],Tox
same,CDI (coefficient of drug interaction),[8],Tox
same,CDI (coefficient of drug interaction),[9],0.51
same,CDI (coefficient of drug interaction),[10],0.64
same,CDI (coefficient of drug interaction),[11],Tox
same,CDI (coefficient of drug interaction),[12],Tox
same,"CDI (coefficient of drug interaction), gold + biocide",[13],1.07
same,"CDI (coefficient of drug interaction), gold + biocide",[14],1.12
same,"CDI (coefficient of drug interaction), gold + biocide",[15],Tox
same,"CDI (coefficient of drug interaction), gold + biocide",[16],Tox
same,"CDI (coefficient of drug interaction), gold + biocide",[17],Tox
same,"CDI (coefficient of drug interaction), gold + biocide","second of 3 gold concentrations, biocide concentration 4 of 4",Tox
same,"CDI (coefficient of drug interaction), gold + biocide",[18],0.90
same,"CDI (coefficient of drug interaction), gold + biocide",[19],0.80
same,"CDI (coefficient of drug interaction), gold + biocide",[20],Tox
same,"CDI (coefficient of drug interaction), gold + biocide",[21],Tox
same,CDI,[23],1.10
same,CDI,[24],Tox
same,CDI,[25],Tox
same,CDI,[26],0.91
same,CDI,[27],0.91
same,CDI,[28],Tox
same,CDI,[29],Tox
same,CDI,[30],0.49
same,CDI,[31],0.34
same,CDI,[32],Tox
same,CDI,[33],Tox
CCn1cc(C(=O)O)c(=O)c2cc(F)c(N3CCNCC3)nc21 [enoxacin],CDI (coefficient of drug interaction),"Gold 50 μM, biocide concentration 3 of 4, E. coli",Tox
same,CDI (coefficient of drug interaction),"Gold 50 μM, biocide concentration 4 of 4, E. coli",Tox
hydroxylamine,CDI (coefficient of drug interaction),,0.99
spiramycin,CDI (coefficient of drug interaction),[1],1.00
same,CDI (coefficient of drug interaction),[3],0.94
same,CDI (coefficient of drug interaction),[4],Tox
same,CDI (coefficient of drug interaction),[5],0.89
same,CDI (coefficient of drug interaction),[6],Tox
same,CDI (coefficient of drug interaction),[7],Tox
same,CDI (coefficient of drug interaction),[8],Tox
same,CDI (coefficient of drug interaction),[9],0.92
same,CDI (coefficient of drug interaction),[10],0.91
same,CDI (coefficient of drug interaction),[11],3.40
same,CDI (coefficient of drug interaction),[12],Tox
same,CDI (coefficient of drug interaction),[37],1.03
same,CDI (coefficient of drug interaction),[38],1.00
same,CDI (coefficient of drug interaction),[39],Tox
same,CDI (coefficient of drug interaction),[40],Tox
same,CDI (coefficient of drug interaction),[41],0.67
same,CDI (coefficient of drug interaction),[42],Tox
same,CDI (coefficient of drug interaction),[43],Tox
same,CDI (coefficient of drug interaction),[44],0.84
same,CDI (coefficient of drug interaction),[45],0.33
same,CDI (coefficient of drug interaction),[46],Tox
same,CDI (coefficient of drug interaction),[47],Tox
same,CDI,[22],0.83
same,CDI,[23],Tox
same,CDI,[24],Tox
same,CDI,[25],Tox
same,CDI,[26],0.96
same,CDI,[27],Tox
same,CDI,[28],Tox
same,CDI,[29],Tox
same,CDI,[30],0.83
same,CDI,[31],Tox
same,CDI,[32],Tox
same,CDI,[33],Tox
CN[C@@H]1[C@@H](O)[C@@H](O[C@@H]2[C@@H](O)[C@H](O[C@H]3O[C@H]([C@@H](C)O)[C@@H](O)[C@H](O)[C@H]3N)[C@@H](N)C[C@H]2N)OC[C@]1(C)O [geneticin (G418)],"CDI (coefficient of drug interaction), copper mixed with biocide","1st of 3 copper concentrations (value not shown), 1st of four biocide concentrations",0.97
same,"CDI (coefficient of drug interaction), copper mixed with biocide","1st of 3 copper concentrations (value not shown), 2nd of four biocide concentrations",0.87
same,"CDI (coefficient of drug interaction), copper mixed with biocide","1st of 3 copper concentrations (value not shown), 3rd of four biocide concentrations",0.86
same,"CDI (coefficient of drug interaction), copper mixed with biocide",[35],0.88
same,"CDI (coefficient of drug interaction), copper mixed with biocide","2nd of 3 copper concentrations (value not shown), 1st of four biocide concentrations",0.73
same,"CDI (coefficient of drug interaction), copper mixed with biocide","2nd of 3 copper concentrations (value not shown), 2nd of four biocide concentrations",0.71
same,"CDI (coefficient of drug interaction), copper mixed with biocide","2nd of 3 copper concentrations (value not shown), 3rd of four biocide concentrations",0.71
same,"CDI (coefficient of drug interaction), copper mixed with biocide","2nd of 3 copper concentrations (value not shown), 4th of four biocide concentrations",Tox
same,"CDI (coefficient of drug interaction), copper mixed with biocide","3rd of 3 copper concentrations (value not shown), 1st of four biocide concentrations",0.54
same,"CDI (coefficient of drug interaction), copper mixed with biocide","3rd of 3 copper concentrations (value not shown), 2nd of four biocide concentrations",0.50
same,"CDI (coefficient of drug interaction), copper mixed with biocide","3rd of 3 copper concentrations (value not shown), 3rd of four biocide concentrations",0.48
same,"CDI (coefficient of drug interaction), copper mixed with biocide",[36],0.44
same,CDI (coefficient of drug interaction),[37],1.08
same,CDI (coefficient of drug interaction),[38],1.00
same,CDI (coefficient of drug interaction),[39],1.01
same,CDI (coefficient of drug interaction),[40],0.95
same,CDI (coefficient of drug interaction),"Gold section of Table 5, second of three gold concentrations (μM, value not given), biocide concentration 1 of 4",1.05
same,CDI (coefficient of drug interaction),[41],1.03
same,CDI (coefficient of drug interaction),[42],1.00
same,CDI (coefficient of drug interaction),[43],1.02
same,CDI (coefficient of drug interaction),[44],1.05
same,CDI (coefficient of drug interaction),[45],1.04
same,CDI (coefficient of drug interaction),[46],1.05
same,CDI (coefficient of drug interaction),[47],1.11
same,CDI,[22],1.04
same,CDI,[23],0.96
same,CDI,[24],0.76
same,CDI,[25],Tox
same,CDI,[26],0.94
same,CDI,[27],0.82
same,CDI,[28],0.31
same,CDI,[29],Tox
same,CDI,[30],0.48
same,CDI,[31],0.49
same,CDI,[32],0.23
same,CDI,[33],Tox
